What is called solubility is the dissolved amount per volume that the medium holds.

≈ marks a conversion by molar mass, not a printed value. Like-named read-outs stand apart in the source and are kept apart here.

The record followed here is patent US11230533B2, “Crystalline salts and polymorphs of a P2X3 antagonist” (Afferent Pharmaceuticals, Inc., priority 2016, dated 2022).

A short description of the data set: Approximate solubility by solvent addition. Format: physicochemical. On the procedure: Solubilities are calculated based on the total solvent used to give a solution; actual solubilities may be greater because of the volume of the solvent portions used or a slow rate of dissolution. Values are rounded to the nearest whole number.
Solubilities are calculated based on the total solvent used to give a solution; actual solubilities may be greater because of the volume of the solvent portions used or a slow rate of dissolution. Values are rounded to the nearest whole number. […] If dissolution occurred as determined by the visual assessment after the addition of the first aliquot, the value is reported as “>”.

With `COc1cc(C(C)C)c(Oc2cnc(N)nc2N)cc1S(N)(=O)=O` [Compound A Free Base Form A, 5-(2,4-diamino-pyrimidin-5-yloxy)-4-isopropyl-2-methoxy-benzenesulfonamide], the solubility is under 1000 µg/mL (aqueous with cosolvent or surfactant or cyclodextrin, thermodynamic from solid, solvent acetone/water 50:50 (v/v), read-out: Solubility); 1000 µg/mL (≈ 2830 µM) (organic solvent or mixture, thermodynamic from solid, solvent ACN/water 90:10 (v/v), read-out: Solubility); under 2000 µg/mL (organic solvent or mixture, thermodynamic from solid, solvent ACN, read-out: Solubility); 20000 µg/mL (≈ 56600 µM) (organic solvent or mixture, thermodynamic from solid, solvent DMSO, read-out: Solubility); under 1000 µg/mL (organic solvent or mixture, thermodynamic from solid, solvent EtOAc, read-out: Solubility); under 1000 µg/mL (organic solvent or mixture, thermodynamic from solid, solvent EtOH, read-out: Solubility). Besides, the solubility is, setting by setting: (organic solvent or mixture, thermodynamic from solid, solvent MeOH, read-out: Solubility) 1000 µg/mL (≈ 2830 µM); (organic solvent or mixture, thermodynamic from solid, solvent TFE, read-out: Solubility) 2000 µg/mL (≈ 5660 µM); (organic solvent or mixture, thermodynamic from solid, solvent acetone, read-out: Solubility) under 1000 µg/mL; (solvent water, ambient temperature) under 1000 µg/mL; (thermodynamic from solid, solvent water, ambient temperature, read-out: Solubility) under 1000 µg/mL.
